# Test results as given in patent publication US20250206722A1, “SMALL MOLECULE INHIBITORS OF TEA DOMAIN FAMILY MEMBERS” (The Scripps Research Institute, priority 2022, published 2025).
# Legend:
# Type in all cases: cell-based
# NCI-H226 cells = experiment: NCI-H226 proliferation assay (in house); conditions: Homo sapiens, 120 h, 5 days, Cell TiterGlo, 20-point 1:2 dilution from 20 μM
# In short: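 Viability by CellTiter-Glo luminescence after 5-day compound exposure at 37 °C, 5% CO2. Compounds added 24 h post-seeding (500 cells/well, RPMI 1640 with 10% FBS) as 20-point, 2-fold series from 20 μM final, triplicate wells.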
# [1] = tested on: transcriptional activity of TEADs; experiment: TEAD reporter assay (MCF7 TEAD-LUC reporter cells); conditions: Homo sapiens, 24 hours, BrightGlo luminescence
# In short: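 Luminescence (BrightGlo) was read after 24 h of compound treatment at 37 °C, 5 % CO2. Cells had been seeded at 5,000 per well in DMEM with 10 % FBS and insulin and rested 24 h first. Dosing used 20 points, 1:2 dilution from 20 μM final, triplicates.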
# IMR32 cells = experiment: IMR32 cytotoxicity assay; conditions: Homo sapiens, IMR-32, 72 h, 3 days, Cell TiterGlo
Compound,IC50 (NCI-H226 cells) [µM],IC50 [1] [nM],IC50 (IMR32 cells) [nM]
"N#CCN1CCN(c2nccnc2Nc2ccc(C(F)(F)F)cc2)CC1 [Example 175, 2-(4-(3-((4-(trifluoromethyl)phenyl)amino)pyrazin-2-yl)piperazin-1-yl)acetonitrile]",> 10,833,> 20000
"C=CC(=O)N1[C@@H]2CC[C@H]1CN(c1nccnc1Nc1ccc(C(F)(F)F)cc1)C2 [Example 12, 1-((1R,5S)-3-(3-((4-(trifluoromethyl)phenyl)amino)pyrazin-2-yl)-3,8-diazabicyclo[3.2.1]octan-8-yl)prop-2-en-1-one]",1.16,491,10000
"C=CC(=O)N1CCN(c2nccnc2N2CC(c3ccccc3)C2)CC1 [Example 106, 1-(4-(3-(3-phenylazetidin-1-yl)pyrazin-2-yl)piperazin-1-yl)prop-2-en-1-one]",20,7,> 20000
"C=CC(=O)NC1CC2(C1)CN(c1nccnc1Nc1ccc(C(F)(F)F)cc1)C2 [Example 6, N-(2-(3-((4-(trifluoromethyl)phenyl)amino)pyrazin-2-yl)-2-azaspiro[3.3]heptan-6-yl)acrylamide]",> 10,> 20000,> 20000
"C=CC(=O)N1CCN(c2nccnc2-c2cccc(C(F)(F)F)c2)CC1 [Example 29, 1-(4-(3-(3-(trifluoromethyl)phenyl)pyrazin-2-yl)piperazin-1-yl)prop-2-en-1-one]",> 20,> 20000,> 20000

# Second part, led by results:
IC50 (NCI-H226 cells) [µM],IC50 [1] [nM],Compound,IC50 (IMR32 cells) [nM]
0.483,43.5,"C=CC(=O)N1CC2CC1CN2c1nccnc1Nc1ccc(C(F)(F)F)cc1 (stereo not drawn) [Example 11, 1-(5-(3-((4-(trifluoromethyl)phenyl)amino)pyrazin-2-yl)-2,5-diazabicyclo[2.2.1]heptan-2-yl)prop-2-en-1-one]",1410
1.4,3.2,"O=C(C1CO1)N1CCN(c2nccnc2Nc2ccc(C(F)(F)F)cc2)CC1 (stereo not drawn) [Example 172, oxiran-2-yl(4-(3-((4-(trifluoromethyl)phenyl)amino)pyrazin-2-yl)piperazin-1-yl)methanone]",10000
0.347,19.2,"C=CC(=O)N1CCN(c2nccnc2NC2CCC(F)(F)CC2)CC1 [Example 66, 1-(4-(3-((4,4-difluorocyclohexyl)amino)pyrazin-2-yl)piperazin-1-yl)prop-2-en-1-one]",> 20000
0.128,10.5,"C=CC(=O)N1CCN(c2nccnc2Nc2cnc(C(F)(F)F)nc2)CC1 [Example 52, 1-(4-(3-((2-(trifluoromethyl)pyrimidin-5-yl)amino)pyrazin-2-yl)piperazin-1-yl)prop-2-en-1-one]",> 20000
